Results on one molecule are retold here after patent US20240245631A1, “METHODS OF TREATING LENNOX-GASTAUT SYNDROME USING FENFLURAMINE” (ZOGENIX INTERNATIONAL LIMITED, priority 2015, published 2024).

The test system of series [1] is self-induced photosensitive seizures. To be noted: four cases; cited from earlier work.
Series [2] relates to child suffering pattern sensitivity-induced seizures. Particulars: single case, resistant to anticonvulsive treatment; cited from earlier work.
Series [3] has as its system children with refractory epilepsy. Particulars: 0.5 to 1 mg/kg/day; cited from earlier work.
The test system of another series is Lennox-Gastaut patients. As to the kind of experiment: Open-label Phase 2 add-on study of low-dose fenfluramine in Lennox-Gastaut patients. The format is in vivo, human. The procedure:
The efficacy of fenfluramine as an add-on treatments in Lennox-Gastaut patients is studied in a Phase 2 Clinical Trial. The study protocol is described and preliminary results are presented here.
An open-label, non-placebo controlled add-on study was designed to assess the efficacy and safety of low-dose add-on fenfluramine across a range of fenfluramine doses (0.2, 0.4, 0.8 mg/kg/day, to a maximum of 30 mg/day). The trial was conducted over a 20 week period, with responders eligible for follow-on treatment, with follow-up appointments at three month intervals.
Patients were recruited from childhood epilepsy clinics in Leuven and Antwerp, Belgium, and selected for inclusion in the study according to criteria comprising a combination of age, physical and psychological characteristics, and resistance to treatment with conventional therapies. Details of selection criteria are provided below.
Study duration is 20 weeks, ending at week 20 after inclusion of 20 patients, i.e., 20 weeks following the enrollment of the 20th patient. Patients who respond to treatment are enrolled in a follow-on study and assessed on an ongoing basis.
Patients are examined during six clinical visits (V1 through V6) scheduled at four week intervals, ending with V6 at week 20. […] At each visit, endpoints and safety criteria are assessed, and dosages adjusted as necessary.
Add-on treatment is begun at V2. […] Endpoints and safety criteria are assessed (seizure counting, adverse effects, pregnancy testing, and quality of life indicators (CGI, sleep scale)). […]
At each of V3-V5, endpoints and safety criteria are again assessed. […]
At V6, endpoints and safety criteria are again assessed. […]
Fenfluramine: Oral fenfluramine solution (2.5 mg/ml or 5 mg/ml) is provided by Zogenix Pharma. […] Patient compliance is assessed by control of oral solution quantity at each visit and collection of seizure diary with notification of drug intake. […]
Safety assessment: Treatment safety is assessed using a combination of physical examination, blood testing, cardiac evaluation, and adverse event reporting. […]

For the molecule `CCNC(C)Cc1cccc(C(F)(F)F)c1` (stereo not drawn) [fenfluramine, 3-trifluoromethyl-N-ethylamphetamine], the “response of self-induced photosensitive seizures” value in series [1] was “responded to treatment with fenfluramine”. Also, the self-induced seizures result in series [2] is “successfully terminated these self-induced seizures”. In addition, in series [3], the “number of seizures experienced by the patients” value was “reduction in the number of seizures”. Moreover, in the series on Lennox-Gastaut patients (3 patients receiving 0.2 mg/kg/day, add-on, interim results), the total seizure frequency entry was “significant decreases in total seizure frequency”. In addition, the serious side effects entry in the series with Lennox-Gastaut patients (9 patients receiving add-on fenfluramine, interim results) is given as “None of the 9 patients receiving fenfluramine reported serious side effects”. In addition, in the series on Lennox-Gastaut patients (low-dose add-on treatment, early interim data), the “seizure frequency (overall interim conclusion)” value is reported as “effective in reducing seizure frequency”.
